d = 2'-deoxy (DNA); m = 2'-O-methyl
Tests used:
E. coli (ATCC 25922) [1] = assay: Specificity control on probe-embedded agar plates: E. coli; assay type: cell-based, Escherichia coli; details: 8 hours after plating
Procedure: (§1) Tryptic Soy Agar (BD Cat. #236950) was autoclaved according to the manufacturer's instructions and cooled down to 50-60° C. Then, pre-sterilized components, including Tris-HCl (pH 9.0) (adjusted to 50 mM using the following stock solution: Rockland Cat. #MB028-1000) and CaCl2) (adjusted to 15 mM using the following stock solution: Sigma-Aldrich Cat. #21115-100ML) were added and the resulting mixture was poured into 60 mm Petri dishes (Corning Cat. #430589). 1 μM or 2 μM AttoPoly T 4mer (IDT, custom order) and 4 μg/mL Cefoxitin (Alfa Aesar Cat. #AAJ6689103) were also included where indicated. The agar mixtures were allowed to solidify, then the Petri dishes were sealed with parafilm (Bemis Cat. #999) and stored at 4° C., protected from light.
(§2) Two fluorescence measurement formats were used to detect the growth of target bacterial species on agar growth media. Agar media poured in 60 mm dishes or distributed to the wells of 96-well clear-bottomed plates were placed on an LED transilluminator (IORodeo) that emits blue light. A light filter was placed over the plates or dishes to block the LED-emitted light, but the filter still allows green light to pass, which is captured with an iPhone camera. […] The fluorescence of the 96-well plates was also measured with a Bio-Tek fluorescence plate-reader using fluorescence filters tailored for green fluorescence, providing quantitative data.

MRSA (ATCC BAA1707) = assay: MRSA vs MSSA detection on probe-embedded agar with/without cefoxitin, 96-well plates; assay type: cell-based, Staphylococcus aureus; details: 1 μM probe in TSA-based media with/without cefoxitin, 37° C.
Procedure: Tryptic Soy Agar (BD Cat. #236950) was autoclaved according to the manufacturer's instructions and cooled down to 50-60° C. Then, pre-sterilized additives, including Tris*HCl (pH 9.0) (adjusted to 50 mM with the following stock solution: Rockland Cat. #MB028-1000) and CaCl2) (adjusted to 15 mM with the following stock solution: Sigma-Aldrich Cat. #21115-100ML) were added. 1 μM or 2 μM AttoPoly T 4mer and 4 μg/mL Cefoxitin (Alfa Aesar Cat. #AAJ6689103) were also included where indicated. 90 μL of the agar mixtures were pipetted into the wells of clear-bottom 96-well plates (Thermo Scientific, nunc Cat. #265301) and allowed to solidify. […]
S. aureus (ATCC 29213) cultures were grown in Tryptic Soy Broth (BD Cat. #211825) overnight at 37° C. with shaking at 300-400 rpm. […] Plates were incubated at 37° C. and imaged using an IO-Rodeo fluorescent imager (IO-Rodeo, Large, Blue LED) and an iPhone 8 camera, and fluorescence was also concurrently measured with a Synergy H1 microplate reader (BioTek).
(§3) Two fluorescence measurement formats were used to detect the growth of target bacterial species on agar growth media. […] The fluorescence of the 96-well plates was also measured with a Bio-Tek fluorescence plate-reader using fluorescence filters tailored for green fluorescence, providing quantitative data.

S. aureus (ATCC 29213) = assay: S. aureus detection on probe-embedded agar Petri dishes (fluorescence imaging); assay type: cell-based, Staphylococcus aureus; details: agar plates streaked with <1000 cells, 37° C., fluorescence plate imaging (SASelect: chromogenic agar)
Procedure: as §1
S. aureus (ATCC 29213) cultures were grown in Tryptic Soy Broth (BD Cat. #211825) overnight at 37° C. with shaking at 300-400 rpm. Dilutions to […] were made and these were streaked on agar Petri dishes with 1 μL calibrated inoculation loops (Fisher Scientific, Fisherbrand Cat. #22363601). […]
as §3

[2] = test system: S. lugdunensis (ATCC 700328); assay: Specificity control on probe-embedded agar plates: S. lugdunensis; assay type: cell-based, Staphylococcus lugdunensis; details: 8 hours after plating
Procedure: as §1, §2

Endonuclease I = molecular target: T1, Endonuclease I (Escherichia coli, UniProt P25736); assay: Probe sensitivity to Endonuclease I; assay type: biochemical
T1 sequence (P25736 23-235): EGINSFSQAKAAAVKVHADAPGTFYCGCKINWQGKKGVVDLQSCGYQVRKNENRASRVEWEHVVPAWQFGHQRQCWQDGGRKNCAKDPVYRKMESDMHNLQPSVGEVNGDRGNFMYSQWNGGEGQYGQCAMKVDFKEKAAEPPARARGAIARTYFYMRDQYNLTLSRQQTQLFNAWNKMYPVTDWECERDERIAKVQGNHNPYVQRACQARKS

E. coli (ATCC 25922) [3] = assay: E. coli detection on fluorogenic agar in 96-well plates; assay type: cell-based, Escherichia coli; details: 0.5 μM probe in TSA-based media, 96-well plate, 37° C.; vs S. aureus and S. pyogenes
Procedure: Tryptic Soy Agar (BD Cat. #236950) was autoclaved according to the manufacturer's instructions and cooled down to 50-60° C. Then, pre-sterilized components, including Tris-HCl (pH 8.0) (adjusted to 50 mM with the following stock solution: Fisher Scientific Cat. #BP1758-100), MgCl2 (adjusted to 20 mM with the following stock solution: Invitrogen Cat. #AM9530G), and Triton® X-100 (adjusted to 1% with the following stock solution: Fisher Scientific Cat. #50-751-7090). 0.5 μM Self-Hyb ATTO was also included where indicated. […]
E. coli (ATCC 25922) cultures were grown in Tryptic Soy Broth (BD Cat. #211825) overnight at 37° C. with shaking at 300-400 rpm. […] Plates were incubated at 37° C. and imaged using an IO-Rodeo fluorescent imager (IO-Rodeo, Large, Blue LED) and an iPhone 8 camera, and fluorescence was also measured concurrently with a Synergy H1 microplate reader (BioTek).
as §3

S. pyogenes (ATCC 12344) [4] = assay: S. pyogenes detection on probe-embedded agar plates; assay type: cell-based, Streptococcus pyogenes; details: agar plates with 0.5 μM probe, streaked with 10,000 cells, 37° C.
Procedure: Tryptic Soy Agar (BD Cat. #236950) was autoclaved according to the manufacturer's instructions and cooled down to 50-60 degrees C. Then, pre-sterilized components including Tris-HCl (pH 8.0) (adjusted to 50 mM with the following stock solution: Fisher Scientific Cat. #BP1758-100) and MgCl2 (adjusted to 20 mM with the following stock solution: Invitrogen Cat. #AM9530G) were added and the resulting mixture was poured into 60 mm Petri dishes (Corning Cat. #430589). 0.5 μM Self-Hyb ATTO and 2 μg/mL Colistin (Alfa Aesar Cat. #AAJ67415XF) were also included where indicated. The agar mixtures were allowed to solidify. Then the Petri dishes were sealed with parafilm (Bemis Cat. #999) and stored at 4° C., protected from light.
S. pyogenes (ATCC® 12344) cultures were grown in Tryptic Soy Broth (BD Cat. #211825) overnight at 37° C. with shaking at 300-400 rpm. Dilutions to […] were made and streaked on agar Petri dishes with 1 μL calibrated inoculation loops (Fisher Scientific, Fisherbrand Cat. #22363601). […]
as §3

S. pyogenes (ATCC 12344) [5] = assay: S. pyogenes detection on selective fluorogenic agar in 96-well plates; assay type: cell-based, Streptococcus pyogenes; details: 0.5 μM probe, 96-well plate, in the presence of colistin (2 μg/ml), 37° C.
Procedure: Tryptic Soy Agar (BD Cat. #236950) was autoclaved according to the manufacturer's instructions and cooled down to 50-60° C. Then, pre-sterilized components, including Tris-HCl (pH 8.0) (adjusted to 50 mM with the following stock solution: Fisher Scientific Cat. #BP1758-100) and MgCl2 (adjusted to 20 mM with the following stock solution: Invitrogen Cat. #AM9530G) were added. 0.5 μM Self-Hyb ATTO and 2 μg/mL Colistin (Alfa Aesar Cat. #AAJ67415XF) were also included where indicated. 90 μL of the agar mixtures were pipetted into the wells of clear-bottom 96-well plates (Thermo Scientific, nunc Cat. #265301) and allowed to solidify. […]
S. pyogenes (ATCC® 12344™) cultures were grown in Tryptic Soy Broth (BD Cat. #211825) overnight at 37° C. with shaking at 300-400 rpm. […] Plates were incubated at 37° C. and imaged with an IO-Rodeo fluorescent imager (IO-Rodeo, Large, Blue LED) and an iPhone 8 camera, and fluorescence was also measured concurrently with a Synergy H1 microplate reader (BioTek).
as §3

nuclease of S. pyogenes = assay: Probe sensitivity to S. pyogenes nuclease; assay type: biochemical
most nucleases = assay: Probe resistance to nucleases in general; assay type: biochemical
[6] = molecular target: micrococcal nuclease of S. aureus (Staphylococcus aureus, UniProt P00644); assay: Probe sensitivity to micrococcal nuclease; assay type: biochemical

## 5′-ATTO488-TTTT-ZEN-RQSp-3′ [AttoPoly T 4mer]
E. coli (ATCC 25922) [1]
  fluorescence produced by E. coli on probe-embedded agar: did not produce fluorescence
MRSA (ATCC BAA1707)
  time at which MRSA can be distinguished from MSSA: 8 to 10 h
S. aureus (ATCC 29213)
  time to detection of S. aureus colonies after plating: ≤ 8 h
[2]
  fluorescence produced by S. lugdunensis on probe-embedded agar: did not produce fluorescence

## 5′-ATTO488-fC-fU-fA-fC-fG-fU-fA-fG-ZEN-RQSp-3′ (CUACGUAG; 2'-fluoro; ATTO488, ZEN, RQSp quencher; (1)..(8) Each base pair in this sequence is a 2′-fluoro modified nucleotide. Please see Table 1 of the Specification.) [Self-Hyb ATTO]
Endonuclease I
  sensitivity to Endonuclease I: sensitive
E. coli (ATCC 25922) [3]
  time to specific detection of E. coli: 8 h
S. pyogenes (ATCC 12344) [4]
  time to detection of S. pyogenes: 19 h
S. pyogenes (ATCC 12344) [5]
  time to detection of low concentrations of S. pyogenes: ≤ 10 h
Nuclease of S. pyogenes
  sensitivity to a nuclease of S. pyogenes: sensitive

## CTACGTAG (DNA, backbone not given here; further chemistry not fully specified) [DNA-SH]
Endonuclease I
  sensitivity to Endonuclease I: sensitive

## fUfUfUfAfUfGfCfAfUfAfAfA (UUUAUGCAUAAA; all 2'-fluoro, backbone not given here; thiol or fluorophore label) [SH-Fl 5UUU]
Endonuclease I
  sensitivity to Endonuclease I: sensitive
Nuclease of S. pyogenes
  sensitivity to a nuclease of S. pyogenes: sensitive

## mCmUmAmCmGmUmAmG (CUACGUAG; all 2'-O-methyl, backbone not given here; thiol modification) [2′-OMe SH]
Most nucleases
  resistance to nucleases: resistant to most nucleases

## mUTTmUmUmUmUmUmUmUmU (UTTUUUUUUUU; sugars from the 5' end m1 d2 m8, backbone not given here) [P2&3 TT Probe]
[6]
  sensitivity to micrococcal nuclease of S. aureus: sensitive
